Test results reported in US4690945A, “Process for the preparation of 5'-substituted 2-(3'-thienyl)propionic acids” (Laboratorios Madaus Cerafarm, S.A., priority 1981, dated 1987).
Entries after “also recorded” stand apart in the source; their conditions may differ.

Key:
[1] = overall pharmacological (anti-inflammatory and analgesic) action, tests on rats and mice; format: in vivo; details: for anti-inflammatory activity (in words): in mammals; for pharmacological action (in words): analgesic and anti-inflammatory
Protocol: (§1) The pharmacological tests were performed on rats and mice, using the carrageenin edema procedure on rats' legs and backs by the test for anti-inflammatory action and the acetic acid contorsion and hot plate tests on mice for the purpose of testing analgesic action.
(§2) In the anti-inflammatory action test, the test was performed on rat leg edema induced by carrageenin, administering the compounds per os and measuring the volume of the edema 3 hours later by plethysmography.
(§3) The anti-inflammatory action of these compounds was also examined by the carrageenin abscess test on rats' backs, the abscess being weighed 24 hours after administration of the product.
(§4) For the examination of analgesic action, the acetic acid and hot plate tests were used.
(§5) In the acetic acid test, the number of contorsions (stretching) is determined, which are produced for 30 minutes following intraperitoneal administration of dilute acetic acid. Analgesic action is also tested by the hot plate test in which the pain stimulus is thermal, the time being measured in seconds which the animal takes to respond to the stimulus by licking its feet.

[2] = test system: rat leg edema induced by carrageenin; assay: carrageenin edema procedure on rats' legs (Δ volume), anti-inflammatory action; format: in vivo; design: key to Anti-inflammatory action, Δ volume: +++: Intense action; ++: Medium action; +: Minimal action; ±: Doubtful action; -: Negative action; --: Not tested; details: per os, 3 hours; for Anti-inflammatory action, Δ volume: class symbol; for ED50: po
Protocol: as §1, §2
(§6) The results obtained in both tests are expressed as a percentage of inhibition of the edema or abscess, and were better than 30% in comparison with a control group.

[3] = test system: carrageenin abscess on rats' backs; assay: carrageenin abscess test on rats' backs (Δ abscess), anti-inflammatory action; format: in vivo; design: key to Anti-inflammatory action, Δ abscess: +++: Intense action; ++: Medium action; +: Minimal action; ±: Doubtful action; -: Negative action; --: Not tested; details: rat back carrageenin abscess, weighed 24 hours after administration; for Anti-inflammatory action, Δ abscess: class symbol
Protocol: as §1, §3, §6

[4] = test system: thermal pain stimulus (hot plate); assay: hot plate test on mice, analgesic action; format: in vivo; design: key: +++: Intense action; ++: Medium action; +: Minimal action; ±: Doubtful action; -: Negative action; --: Not tested; details: class symbol
Protocol: as §1, §4, §5

[5] = acute toxicity (DL50 / LD50); details: mouse, in vivo
Excerpt: Most of the compounds described in these examples have been tested pharmacologically and toxicologically (DL50) according to the methods indicated on pages 5 to 7, and the results are summarized in the appended table.

[6] = test system: contorsions (stretching) induced by intraperitoneal dilute acetic acid; assay: acetic acid contorsion test on mice, analgesic action; format: in vivo; design: key to Analgesic action, Acetic acid: +++: Intense action; ++: Medium action; +: Minimal action; ±: Doubtful action; -: Negative action; --: Not tested; details: for Analgesic action, Acetic acid / ED50: mice, contorsions during 30 minutes after i.p. acetic acid; for Analgesic action, Acetic acid: class symbol; for ED50: Mus musculus, ip, 0.5 h; for analgesic action (in words): acetic acid and hot plate tests
Protocol: as §5, with “The pharmacological tests were performed on rats and mice, using the carrageenin edema procedure on rats' legs and backs by the test for anti-inflammatory action and the acetic acid contorsion and hot plate tests on mice for the purpose of testing analgesic action. For the examination of analgesic action, the acetic acid and hot plate tests were used. […] In” for “In”

SMILES | anti-inflammatory activity (in words) [1] | Anti-inflammatory action, Δ volume [2] | Anti-inflammatory action, Δ abscess [3] | Analgesic action, Plate [4] | LD50 [5] | Analgesic action, Acetic acid [6] | ED50 [2] | ED50 [3] | ED50 [6] | analgesic action (in words) [6] | pharmacological action (in words) [1] | anti-inflammatory activity (in words) ([1]; listed as I) | anti-inflammatory activity (in words) ([1]; listed as II)
CC(C(=O)O)c1csc(C(=O)c2ccc(Cl)cc2)c1 (stereo not shown) [B] | potent anti-inflammatory activity | – | – | – | – | – | – | – | – | – | – | – | –
CC(C)Cc1cc(C(C)C(=O)O)cs1 (stereo not shown) [LMC-VI] | – | + | + | + | > 1000 mg/kg | – | – | – | – | – | – | – | –
CC(C(=O)O)c1csc(C(=O)c2ccc(Cl)cc2Cl)c1 (stereo not shown) [LMC-III, 2-(5'-(2",4"-dichloro)benzoyl-3'-thienyl)propionic acid] | – | ± | + | + | ~1000 mg/kg | + | – | – | – | – | – | – | –
CC(C(=O)O)c1csc(C(=O)c2ccccc2)c1 (stereo not shown) [LMC-I, 2-(5'-benzoyl-3'-thienyl)propionic acid] | – | +++ | +++ | – | ~400 mg/kg | +++ | 7.3 mg/kg | 12.5 mg/kg | 50 mg/kg | have an analgesic action | notable analgesic and anti-inflammatory action; also recorded: most active compounds | anti-inflammatory activity in mammals | –
CC(C)C(=O)c1cc(C(C)C(=O)O)cs1 (stereo not shown) [LMC-V, 2-(5'-isobutyryl-3'-thienyl)propionic acid] | – | ++ | + | + | ~1500 mg/kg | – | – | – | – | – | – | – | –
CC(C(=O)O)c1csc(C(=O)c2ccc(Cl)cc2)c1 (stereo not shown) [LMC-II, 2-(5'-(4"-chloro)benzoyl-3'-thienyl)propionic acid] | – | +++ | +++ | – | ~1200 mg/kg | +++ | 17.3 mg/kg | 23.5 mg/kg | 69.6 mg/kg | have an analgesic action | notable pharmacological action, though it is inferior to that of compound I; also recorded: most active compounds | – | anti-inflammatory activity in mammals
CC(C(=O)O)c1csc(C(=O)c2ccccc2)c1 (stereo not shown) [A] | potent anti-inflammatory activity | – | – | – | – | – | – | – | – | – | – | – | –
Cc1ccc(C(=O)c2cc(C(C)C(=O)O)cs2)cc1 (stereo not shown) [LMC-IV] | – | +++ | ++ | ++ | ~1200 mg/kg | ++ | – | – | – | – | best representative of this action | – | –
CC(C(=O)O)c1csc(Cc2ccccc2)c1 (stereo not shown) [LMC-VII, 2-(5'-benzyl-3'-thienyl)propionic acid] | – | + | – | – | ~1500 mg/kg | – | – | – | – | – | – | – | –
